According to patent US9751869B2, “LXR modulators” (BRISTOL-MYERS SQUIBB COMPANY, priority 2013, dated 2017):
pEC50: −log10 of the molar value.

Molecular target: T1, LXRβ (Homo sapiens, UniProt P55055)
T1 construct: Co-transfection expression plasmids, comprising full-length LXRα (pCMX-h LXRα or LXRβ (pCMX-hLXRβ)); expressed in transfected cells; host or cells: CV-1 African green monkey kidney cells, transient transfection with pCMX-hLXRβ
T1 sequence (P55055 1-460): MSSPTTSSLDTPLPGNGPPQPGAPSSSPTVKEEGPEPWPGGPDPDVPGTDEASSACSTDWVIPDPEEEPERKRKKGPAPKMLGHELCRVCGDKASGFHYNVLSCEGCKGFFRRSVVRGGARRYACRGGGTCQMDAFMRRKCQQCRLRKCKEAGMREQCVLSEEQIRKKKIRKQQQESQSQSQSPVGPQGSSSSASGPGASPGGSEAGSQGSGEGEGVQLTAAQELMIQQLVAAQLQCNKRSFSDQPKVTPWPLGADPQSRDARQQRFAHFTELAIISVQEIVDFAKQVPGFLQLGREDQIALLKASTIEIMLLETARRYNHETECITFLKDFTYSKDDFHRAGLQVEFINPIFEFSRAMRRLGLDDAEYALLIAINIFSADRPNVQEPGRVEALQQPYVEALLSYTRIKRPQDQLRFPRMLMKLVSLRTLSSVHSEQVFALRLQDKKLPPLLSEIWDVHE
T1 sequence (P19793 1-462 partner): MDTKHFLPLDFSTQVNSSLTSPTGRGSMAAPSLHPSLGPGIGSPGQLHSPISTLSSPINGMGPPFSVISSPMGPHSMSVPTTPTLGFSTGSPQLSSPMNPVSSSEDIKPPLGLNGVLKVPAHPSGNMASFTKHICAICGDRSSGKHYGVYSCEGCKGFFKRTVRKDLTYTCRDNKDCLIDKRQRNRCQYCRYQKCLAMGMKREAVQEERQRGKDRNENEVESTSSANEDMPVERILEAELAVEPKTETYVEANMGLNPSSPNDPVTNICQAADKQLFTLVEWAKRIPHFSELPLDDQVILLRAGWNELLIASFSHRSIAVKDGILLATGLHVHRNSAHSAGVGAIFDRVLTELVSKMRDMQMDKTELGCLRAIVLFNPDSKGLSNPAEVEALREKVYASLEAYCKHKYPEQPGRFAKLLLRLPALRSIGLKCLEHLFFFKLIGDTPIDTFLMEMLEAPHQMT
Experiment: LXR/LXRE co-transfection assay (luciferase reporter) in CV-1 cells, LXRβ
Format: cell-based
Settings: for pEC50: CV-1 cells transfected with pCMX-hLXRβ and LXREx1-Tk-Luciferase, 20 hours incubation, read-out: LXRbeta agonism EC50; for Emax: read-out: LXRbeta % EFFICACY
How it was run: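 CV-1 cells transiently co-transfected with full-length human LXRβ, LXRE-Tk-luciferase reporter and β-galactosidase control, then exposed to compound (≤0.5% DMSO) for 20 h at 37 °C before luminescence read. EC50 from 10-point, half-log dose curves; efficacy relative to the sulfonamide high control, means of 2–3 experiments.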

[1] = CV-1 cells, relative to maximum response of high control N-(3-((4-fluorophenyl)-(naphthalene-2-sulfonyl)amino)propyl)-2,2-dimethylpropionamide

Structure (SMILES)	pEC50	Emax [1] [%]	LXRbeta % EFFICACY [1] [%]
Cc1nc(-c2ccc3c(c2)OC(F)(F)O3)c(-c2cc(-c3cccc(S(C)(=O)=O)c3)ccc2-n2ccc(C(F)(F)F)n2)o1 [Example 350, 4-(2,2-difluorobenzo[d][1,3]dioxol-5-yl)-2-methyl-5-(3′-(methylsulfonyl)-4-(3-(trifluoromethyl)-1H-pyrazol-1-yl)biphenyl-3-yl)oxazole]	7.18	91	
Cc1nc(-c2cc(-c3cc(F)c(CO)c(S(C)(=O)=O)c3)ccc2-n2ccc(C(F)(F)F)n2)c(-c2cc(F)c(OC(F)F)c(F)c2)o1 [Example 410, (3′-(5-(4-(difluoromethoxy)-3,5-difluorophenyl)-2-methyloxazol-4-yl)-3-fluoro-5-(methylsulfonyl)-4′-(3-(trifluoromethyl)-1H-pyrazol-1-yl)biphenyl-4-yl)methanol]	7.70	82	
Cc1nc(-c2ccc3c(c2)OC(F)(F)O3)c(-c2cc(-c3cc(F)c(CO)c(S(C)(=O)=O)c3)ccc2-c2cc(C(=O)NC3CC3)nn2C)o1 [Example 108, N-cyclopropyl-5-(3-(4-(2,2-difluorobenzo[d][1,3]dioxol-5-yl)-2-methyloxazol-5-yl)-3′-fluoro-4′-(hydroxymethyl)-5′-(methylsulfonyl)-[1,1′-biphenyl]-4-yl)-1-methyl-1H-pyrazole-3-carboxamide]	6.28	30	
Cc1nc(-c2ccc3c(c2)OC(F)(F)O3)c(-c2cc(-c3cccc(S(C)(=O)=O)c3)ccc2-c2cc(C(C)C#N)nn2C)o1 (centres unmarked) [Example 116, 2-(5-(3-(4-(2,2-difluorobenzo[d][1,3]dioxol-5-yl)-2-methyloxazol-5-yl)-3′-(methylsulfonyl)-[1,1′-biphenyl]-4-yl)-1-methyl-1H-pyrazol-3-yl)propanenitrile]	7.59		99
Cc1nc(-c2ccc(OC(F)F)nc2)c(-c2cc(-c3cc(F)c(CO)c(S(C)(=O)=O)c3)ccc2-n2cc(Cl)c(C(F)(F)F)n2)o1 [Example 426, (4′-(4-chloro-3-(trifluoromethyl)-1H-pyrazol-1-yl)-3′-(4-(6-(difluoromethoxy)pyridin-3-yl)-2-methyloxazol-5-yl)-3-fluoro-5-(methylsulfonyl)-[1,1′-biphenyl]-4-yl) methanol]	8.10	72	
COc1ncc(-c2nc(C)oc2-c2cc(-c3cccc(S(C)(=O)=O)c3)ccc2-n2cc(Cl)c(C(F)(F)F)n2)cn1 [Example 427, 5-(4-(4-chloro-3-(trifluoromethyl)-1H-pyrazol-1-yl)-3′-(methylsulfonyl)-[1,1′-biphenyl]-3-yl)-4-(2-methoxypyrimidin-5-yl)-2-methyloxazole]	7.03	58	
Cc1nc(-c2ccc(OC(F)(F)F)cc2)c(-c2cc(-c3cc(F)c(CO)c(S(C)(=O)=O)c3)ccc2-n2nc(C(F)(F)F)cc2C)o1 [Example 332, (3-fluoro-4′-(5-methyl-3-(trifluoromethyl)-1H-pyrazol-1-yl)-3′-(2-methyl-4-(4-(trifluoromethoxy)phenyl)oxazol-5-yl)-5-(methylsulfonyl)biphenyl-4-yl)methanol]	7.46	70	
COCC(F)(F)c1cc(-c2ccc(-c3cc(F)c(CO)c(S(C)(=O)=O)c3)cc2-n2nncc2-c2ccc(OC(F)(F)F)cc2)n(C)n1 [Example 17, [4′-{3-[1,1-difluoro-2-(methyloxy)ethyl]-1-methyl-1H-pyrazol-5-yl}-3-fluoro-5-(methylsulfonyl)-3′-(5-{4-[(trifluoromethyl)oxy]phenyl}-1H-1,2,3-triazol-1-yl)biphenyl-4-yl]methanol]	7.21	96	
Cc1nc(-c2cc(-c3cccc(S(C)(=O)=O)c3)ccc2-n2ccc(C(F)(F)F)n2)c(-c2ccc(OC(F)(F)F)cc2)o1 [Example 414, 2-methyl-4-(3′-(methylsulfonyl)-4-(3-(trifluoromethyl)-1H-pyrazol-1-yl)biphenyl-3-yl)-5-(4-(trifluoromethoxy)phenyl)oxazole]	7.04	80	
Cc1nc(-c2cc(-c3cc(F)c(CO)c(S(C)(=O)=O)c3)ccc2-c2cc(C(C)(C)C(C)(C)O)nn2C)c(-c2ccc3c(c2)OC(F)(F)O3)o1 [Example 64, 3-(5-(3-(5-(2,2-difluorobenzo[d][1,3]dioxol-5-yl)-2-methyloxazol-4-yl)-3′-fluoro-4′-(hydroxymethyl)-5′-(methylsulfonyl)biphenyl-4-yl)-1-methyl-1H-pyrazol-3-yl)-2,3-dimethylbutan-2-ol]	7.62	42	
Cc1nc(-c2ccc3c(c2)OC(F)(F)O3)c(-c2cc(-c3cc(F)c(CO)c(S(C)(=O)=O)c3)ccc2-c2cc(CC#N)nn2C)o1 [Example 58, 2-(5-(3-(4-(2,2-difluorobenzo[d][1,3]dioxol-5-yl)-2-methyloxazol-5-yl)-3′-fluoro-4′-(hydroxymethyl)-5′-(methylsulfonyl)-[1,1′-biphenyl]-4-yl)-1-methyl-1H-pyrazol-3-yl)acetonitrile]	7.74	94	
Cc1nc(-c2ccc(OC(F)(F)F)cc2)c(-c2cc(-c3cc(F)cc(S(C)(=O)=O)c3)ccc2-n2ccc(C(F)(F)F)n2)o1 [Example 334, 5-(3′-fluoro-5′-(methylsulfonyl)-4-(3-(trifluoromethyl)-1H-pyrazol-1-yl)biphenyl-3-yl)-2-methyl-4-(4-(trifluoromethoxy)phenyl)oxazole]	6.52	80	
CC(O)C(F)(F)c1cc(-c2ccc(-c3cc(F)c(CO)c(S(C)(=O)=O)c3)cc2-n2nncc2-c2ccc(OC(F)(F)F)cc2)n(C)n1 (centres unmarked) [Example 6, 1,1-difluoro-1-(5-(3′-fluoro-4′-(hydroxymethyl)-5′-(methylsulfonyl)-3-(5-(4-(trifluoromethoxy)phenyl)-1H-1,2,3-triazol-1-yl)biphenyl-4-yl)-1-methyl-1H-pyrazol-3-yl)propan-2-ol]	6.60	84	
Cc1nc(-c2ccc(OC(F)(F)F)cc2)c(-c2cc(-c3cc(F)c(CO)c(S(C)(=O)=O)c3)ccc2-n2cc(Cl)c(C(F)(F)F)n2)o1 [Example 379, (4′-(4-chloro-3-(trifluoromethyl)-1H-pyrazol-1-yl)-3-fluoro-3′-(2-methyl-4-(4-(trifluoromethoxy)phenyl)oxazol-5-yl)-5-(methylsulfonyl)-[1,1′-biphenyl]-4-yl)methanol]	7.57	86	
Cc1nc(-c2ccc3c(c2)OC(F)(F)O3)c(-c2cc(-c3cccc(S(C)(=O)=O)c3)ccc2-c2cc(C(C)(F)F)nn2C)o1 [Example 94, 4-(2,2-difluorobenzo[d][1,3]dioxol-5-yl)-5-(4-(3-(1,1-difluoroethyl)-1-methyl-1H-pyrazol-5-yl)-3′-(methylsulfonyl)biphenyl-3-yl)-2-methyloxazole]	7.49	87	
Cc1nc(-c2ccc3c(c2)OC(F)(F)O3)c(-c2cc(-c3cc(F)c(CO)c(S(C)(=O)=O)c3)ccc2-c2cc(C(C)C#N)nn2C)o1 (centres unmarked) [Example 115, 2-(5-(3-(4-(2,2-difluorobenzo[d][1,3]dioxol-5-yl)-2-methyloxazol-5-yl)-3′-fluoro-4′-(hydroxymethyl)-5′-(methylsulfonyl)-[1,1′-biphenyl]-4-yl)-1-methyl-1H-pyrazol-3-yl)propanenitrile]	7.72	62	
Cc1nc(-c2ccc3c(c2)OC(F)(F)O3)c(-c2cc(-c3cccc(S(C)(=O)=O)c3)ccc2-c2cc(C(C)OC(N)=O)nn2C)o1 (centres unmarked) [Example 129, 1-(5-(3-(4-(2,2-difluorobenzo[d][1,3]dioxol-5-yl)-2-methyloxazol-5-yl)-3′-(methylsulfonyl)-[1,1′-biphenyl]-4-yl)-1-methyl-1H-pyrazol-3-yl)ethyl carbamate]	7.06	48	
COc1ncc(-c2oc(C)nc2-c2cc(-c3cc(F)c(CO)c(S(C)(=O)=O)c3)ccc2-n2ccc(C(F)(F)F)n2)cc1F [Example 408, (3-fluoro-3′-(5-(5-fluoro-6-methoxypyridin-3-yl)-2-methyloxazol-4-yl)-5-(methylsulfonyl)-4′-(3-(trifluoromethyl)-1H-pyrazol-1-yl)biphenyl-4-yl)methanol]	7.74	73	
Cc1nc(-c2ccc(OC(F)F)cc2Cl)c(-c2cc(-c3cccc(S(C)(=O)=O)c3)ccc2-n2cc(Cl)c(C(F)(F)F)n2)o1 [Example 431]	7.43	69	
